Structures are written as SMILES. Activity calls are given as the source filed them. The rule behind the calls is not given here.

These results are taken from ChEMBL document CHEMBL4414546, “Identification of Narciclasine as an in Vitro Anti-Inflammatory Component of Cyrtanthus contractus by Correlation-Based Metabolomics” (2019).

Test [1] has as its system HUVEC. Description: Effect on TNF-alpha-induced NFkappaB nuclear translocation in HUVEC at 7.2 nM preincubated for 30 mins followed by TNF-alpha stimulation and measured after 30 mins by fluorescence microscopic analysis. Format: cell-based. Particulars: Homo sapiens.
The subject of test [2] is HUVEC. The test is described as follows: Antiinflammatory activity in HUVEC assessed as reduction in TNF-alpha-induced E-selectin expression at 7.2 nM preincubated for 30 mins followed by TNF-alpha stimulation and measured after 30 mins by immunoblotting analysis. Particulars: Homo sapiens. Format: functional, cell-based. For orientation: In western blotting, separated proteins are transferred to a membrane and probed.

The subject of test [3] is HUVEC. Description: Antiinflammatory activity in HUVEC assessed as reduction in TNF-alpha-induced ICAM1 cell surface expression at 7.2 nM preincubated for 30 mins followed by TNF-alpha stimulation and measured after 24 hrs by flow cytometry. Particulars: Homo sapiens. Format: functional, cell-based. (In general: Flow cytometry measures light scatter and fluorescence of single cells or particles in a stream.)

In test [4] the test system is HUVEC. The test is described as follows: Antiinflammatory activity in TNF-alpha-induced HUVEC assessed as fold change in COX2 expression at 7.2 nM preincubated for 30 mins followed by addition and measured after 30 mins by immunoblotting analysis (reference value: 0.50). Format: functional, Homo sapiens.
Test [5] concerns HUVEC. The test is described as follows: Antiinflammatory activity in TNF-alpha-induced HUVEC assessed as fold change in IkappaBalpha expression at 7.2 nM preincubated for 30 mins followed by addition and measured after 30 mins by immunoblotting analysis (reference value: 0.50). The class given is functional, Homo sapiens.
Test [6] deals with HUVEC. The test is described as follows: Antiinflammatory activity in HUVEC assessed as reduction in TNF-alpha-induced E-selectin cell surface expression at 7.2 nM preincubated for 30 mins followed by TNF-alpha addition and measured after 4 hrs by ELISA. Format: functional, cell-based. Particulars: Homo sapiens.

With `O=C1N[C@@H]2C(=C[C@H](O)[C@@H](O)[C@H]2O)c2cc3c(c(O)c21)OCO3` [NARCICLASINE], the result in the test on HUVEC [1] was inactive. Moreover, the inhibition result in the test with HUVEC [2], with HUVEC [3] and with HUVEC [6] was “Active” throughout. Moreover, the figures for the “fold change (FC)” value in the test with HUVEC [4] and in the test on HUVEC [5] were 0.8 and 0.31, respectively.
